# pKi: −log10 of the molar value.
# Experiments:
# [1] = Plasma protein binding (free fraction); assay type: in vitro ADME, mouse
# Description: (§1) Example 3 of U.S. Pat. No. 9,789,131, which is incorporated herein by reference, describes assays for determining the plasma and brain free fraction of certain compounds such as I-1. Compounds described herein may be evaluated using such assays or similar variants thereof.
# [2] = system: photothrombosis-induced stroke in mice; assay: Mouse photothrombotic stroke model; assay type: in vivo; conditions: mouse, stroke
# Method: Photothrombosis-induced Stroke: Photothrombosis is performed as described in Zheng et al 2010 (PloS One 5 (12): e14401). In brief, Rose Bengal is a fluorescent dye that when injected into the vasculature and excited, generates singlet oxygen that damages the endothelial wall and induces a local thrombosis (clot). Using this technique, mice are given a 0.1 mL tail-vein injection of sterilized Rose Bengal (RB, Sigma, U.S.A.) in artificial cerebral spinal fluid (aCSF). The RB concentration is 20 mg/mL. A cortical region is centered in the imaging field and illuminated with a green laser (543 nm, 5 mW) using a 0.8-NA 40× water-immersion objective (Nikon, Tokyo). The clot formation is monitored in real time until the targeted vessel or downstream capillaries are firmly occluded. Stable clots are subsequently identified by a non-fluorescent vessel segmentation ending with highly fluorescent regions. […] Treatments, at doses such as 0.5 μmol/kg are introduced via intraperitoneal injections (i.p.). For experiments with A3 receptor antagonist MRS1523, mice are administered intraperitoneal injections (2 mg/kg) at the 0 and 2 hour timepoints to ensure receptor antagonism throughout the course of the study.
# Animals and Photothrombosis-induced Stroke: Stroke is performed as described in Zheng et al 2010 (PloS One 5 (12): e14401). Female C57Bl/6 mice (4-6 months) are used in this study. From the methods of this manuscript: Mice are anesthetized at 3% isoflurane with 100% oxygen and subsequently maintained at 1% isoflurane through a nosecone. Depth of anesthesia is monitored and regulated according to vital signs, pinch withdrawal and eye blinks. Body temperature is maintained at 37° C. by a feedback-controlled heating pad (Gaymar T/Pump). Vital signs including oxygen saturation, respiratory rate, and heart rate are continuously monitored by using the MouseOx system (STARR Life Sciences). […]
# Post photothrombotic infarction evaluation. The size of cerebral infarcts is evaluated using 2,3,5-Triphenyltetrazolium chloride (TTC) staining as described in Zheng et al 2010 (PloS One 5 (12): e14401). […]
# [3] = system: traumatic brain injury (TBI) in mice; assay: Mouse traumatic brain injury (TBI) model; assay type: in vivo
# Method: Animals and traumatic brain injury (TBI): TBI is performed with a controlled closed skull injury model as described in Talley-Watts et al. 2012 (J. Neurotrauma 30, 55-66). Following the method described therein, a pneumatic impact device is used to generate a moderate TBI leaving the skull and dura matter intact. To achieve this, C57BL/6 mice are anesthetized with isoflurane (3% induction, 1% maintenance) in 100% oxygen. A body temperature of 37° C. is maintained using a temperature-controlled heated surgical table. A small midline incision is made on the scalp using aseptic surgical techniques. A 5 mm stainless steel disc is positioned on the skull and fixed using superglue on the right parietal bone between bregma and lamda over the somatosensory cortex. The mouse is then positioned on a stage directly under the pneumatic impact tip. […] Mice are placed in a Thermo-Intensive Care Unit (Braintree Scientific model FV-1; 37° C.; 27% O2) and monitored until fully awake and moving freely. […]
# Western Blot Analysis for GFAP: At selected survival times, mice are anesthetized under isoflurane and sacrificed. […] The homogenate is transferred to a 2 mL tube and centrifuged at 1000 g for 10 minutes at 4° C. and the supernatant is collected and analyzed. Protein concentration is determined by the BCA assay using a 1:50 dilution. […]
# [4] = Nonspecific brain tissue binding (free fraction); assay type: in vitro ADME, mouse; conditions: brain tissue
# Description: as §1
# Human A3R = biological target: T1, Human A3R (Homo sapiens, UniProt P0DMS8); assay: Radioligand binding at human A3 adenosine receptor ([125I]I-AB-MECA, CHO cell membranes); conditions: n = 1; read-out: Affinity (nM) at Human A3R
# T1 construct: expressed in transfected cells
# T1 sequence (P0DMS8 1-318): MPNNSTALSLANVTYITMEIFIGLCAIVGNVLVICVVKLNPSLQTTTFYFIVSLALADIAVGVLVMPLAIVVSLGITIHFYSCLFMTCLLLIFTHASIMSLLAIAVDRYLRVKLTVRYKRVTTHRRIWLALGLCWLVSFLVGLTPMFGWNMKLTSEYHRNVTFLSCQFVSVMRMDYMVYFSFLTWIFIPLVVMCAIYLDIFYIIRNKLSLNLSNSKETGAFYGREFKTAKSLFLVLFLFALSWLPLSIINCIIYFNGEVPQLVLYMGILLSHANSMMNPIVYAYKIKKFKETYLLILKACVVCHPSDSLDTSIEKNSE
# Method: [3H]R—N^6-Phenylisopropyladenosine ([3H]R-PIA, 63 Ci/mmol), [^3H](2-[p-(2-carboxyethyl)phenyl-ethylamino]-5′-N-ethylcarboxamido-adenosine) ([^3H]CGS21680, 40.5 Ci/mmol) and [^125I]N^6-(4-amino-3-iodobenzyl)adenosine-5′-N-methyluronamide ([^125I]I-AB-MECA, 2200 Ci/mmol) were purchased from Perkin-Elmer Life and Analytical Science (Boston, MA). Test compounds were prepared as 5 mM stock solutions in DMSO and stored frozen.
# Cell Culture and Membrane Preparation—CHO cells stably expressing the recombinant hA1 and hA3ARs and HEK293 cells stably expressing the hA2AAR were cultured in Dulbecco's modified Eagle medium (DMEM) and F12 (1:1) supplemented with 10% fetal bovine serum, 100 units/mL penicillin, 100 μg/mL streptomycin, and 2 μmol/mL glutamine. In addition, 800 μg/mL geneticin was added to the A2A media, while 500 μg/mL hygromycin was added to the A1 and A3 media. After harvesting, cells were homogenized and suspended in PBS. Cells were then centrifuged at 240 g for 5 min, and the pellet was resuspended in 50 mM Tris-HCl buffer (pH 7.5) containing 10 mM MgCl2. The suspension was homogenized and was then ultra-centrifuged at 14,330 g for 30 min at 4° C. The resultant pellets were resuspended in Tris buffer, incubated with adenosine deaminase (3 units/mL) for 30 min at 37° C. The suspension was homogenized with an electric homogenizer for 10 sec, pipetted into 1 mL vials and then stored at −80° C. until the binding experiments. The protein concentration was measured using the BCA Protein Assay Kit from Pierce Biotechnology, Inc. (Rockford, IL).
# Binding assays: Into each tube in the binding assay was added 50 μL of increasing concentrations of the test ligand in Tris-HCl buffer (50 mM, pH 7.5) containing 10 mM MgCl2, 50 μL of the appropriate agonist radioligand, and finally 100 μL of membrane suspension. For the A1AR (22 μg of protein/tube) the radioligand used was [^3H]R-PIA (final concentration of 3.5 nM). For the A2AAR (20 μg/tube) the radioligand used was [^3H]CGS21680 (10 nM). For the A3AR ([…]) the radioligand used was [^125I]I-AB-MECA (0.34 nM). Nonspecific binding was determined using a final concentration of 10 μM NECA diluted with the buffer. The mixtures were incubated at 25° C. for 60 min in a shaking water bath. Binding reactions were terminated by filtration through Brandel GF/B filters under a reduced pressure using a M-24 cell harvester (Brandel, Gaithersburg, MD). Filters were washed three times with 3 mL of 50 mM ice-cold Tris-HCl buffer (pH 7.5). Filters for A1 and A2AAR binding were placed in scintillation vials containing 5 mL of Hydrofluor scintillation buffer and counted using a Perkin Elmer Liquid Scintillation Analyzer (Tri-Carb 2810TR). Filters for A3AR binding were counted using a Packard Cobra II T-counter. The Ki values were determined using GraphPad Prism for all assays.
# A3R binding of selected compounds. Using methods described herein, the affinity of selected compounds at the A3 receptor was measured.
# P2Y1R = P2Y1R (Homo sapiens, UniProt P47900); conditions: reference 6; cited from earlier work
# P2Y1R, sequence (P47900 whole entry): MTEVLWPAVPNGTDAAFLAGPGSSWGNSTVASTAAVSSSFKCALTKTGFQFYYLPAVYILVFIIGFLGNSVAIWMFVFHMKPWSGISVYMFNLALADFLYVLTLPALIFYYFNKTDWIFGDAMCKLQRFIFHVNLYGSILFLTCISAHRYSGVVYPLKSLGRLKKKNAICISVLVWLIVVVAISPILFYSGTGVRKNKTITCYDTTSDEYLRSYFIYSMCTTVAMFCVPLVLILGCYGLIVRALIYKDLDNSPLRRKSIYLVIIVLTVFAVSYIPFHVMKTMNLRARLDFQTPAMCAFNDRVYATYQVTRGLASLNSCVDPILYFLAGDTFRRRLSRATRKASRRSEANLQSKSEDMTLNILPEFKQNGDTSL
# A3AR = biological target: T2, A3AR (Homo sapiens, UniProt P0DMS8); conditions: reference 5; cited from earlier work
# T2 sequence (P0DMS8 1-318): T1 sequence (P0DMS8 1-318)
structure (smiles),measurement,setting,value
"CNC(=O)[C@H]1O[C@@H](n2cnc3c(NCc4cccc(I)c4)nc(Cl)nc32)[C@H](O)[C@@H]1O [Cl-IB-MECA, reference compound]",free (unbound) fraction in plasma,[1],0.002
same,efficacy in mouse photothrombotic stroke model,[2],inactive
same,efficacy in mouse TBI model,[3],weakly active
same,free (unbound) fraction in brain,[4],0.002
"CCSc1nc(N)c2ncn([C@H]3[C@H](O)[C@H](O)[C@]4(CO)C[C@H]34)c2n1 [Compound I-2, (1R,2R,3S,4R,5S)-4-(6-Amino-2-(ethylthio)-9H-purin-9-yl)-1-(hydroxymethyl)bicyclo[3.1.0]hexane-2,3-diol]",Ki,Human A3R,909 nM
"CCCCCCSc1nc(N)c2ncn([C@H]3[C@H](O)[C@H](O)[C@]4(CO)C[C@H]34)c2n1 [Compound I-3, (1R,2R,3S,4R,5S)-4-(6-Amino-2-(hexylthio)-9H-purin-9-yl)-1-(hydroxymethyl)bicyclo[3.1.0]hexane-2,3-diol]",Ki,Human A3R,504 nM
"Nc1nc(SC2CCCCC2)nc2c1ncn2[C@H]1[C@H](O)[C@H](O)[C@]2(CO)C[C@H]12 [Compound I-4, (1R,2R,3S,4R,5S)-4-(6-Amino-2-(cyclohexylthio)-9H-purin-9-yl)-1-(hydroxymethyl)bicyclo[3.1.0]hexane-2,3-diol]",Ki,Human A3R,1170 nM
"Nc1nc(SCc2ccccc2)nc2c1ncn2[C@H]1[C@H](O)[C@H](O)[C@]2(CO)C[C@H]12 [Compound I-5, (1R,2R,3S,4R,5S)-4-(6-Amino-2-(benzylthio)-9H-purin-9-yl)-1-(hydroxymethyl)bicyclo[3.1.0]hexane-2,3-diol]",Ki,Human A3R,55 nM
"Nc1nc(SCCc2ccccc2)nc2c1ncn2[C@H]1[C@H](O)[C@H](O)[C@]2(CO)C[C@H]12 [Compound I-6, (1R,2R,3S,4R,5S)-4-(6-Amino-2-(phenethylthio)-9H-purin-9-yl)-1-(hydroxymethyl)bicyclo[3.1.0]hexane-2,3-diol]",Ki,Human A3R,379 nM
"COc1nc(N)c2ncn([C@H]3[C@H](O)[C@H](O)[C@]4(CO)C[C@H]34)c2n1 [Compound I-7, (1R,2R,3S,4R,5S)-4-(6-Amino-2-methoxy-9H-purin-9-yl)-1-(hydroxymethyl)bicyclo[3.1.0]hexane-2,3-diol]",Ki,Human A3R,1050 nM
CSc1nc(N)c2ncn([C@H]3C(O)[C@@H](O)[C@]4(COP(=O)(O)OP(=O)(O)O)C[C@H]34)c2n1 (stereo partly drawn) [MRS2365],pKi,P2Y1R,9.40
CNC(=O)[C@@]12C[C@@H]1[C@@H](n1cnc3c(NCc4cccc(Cl)c4)nc(SC)nc31)C(O)[C@H]2O (stereo partly drawn) [MRS3611],pKi,A3AR,8.82

# Reference: US20240368164A1, “PURINE NUCLEOSIDES, THEIR INTERMEDIATES, AND METHODS OF PREPARATION THEREOF” (Astrocyle Pharmaceuticals, Inc., priority 2021, published 2024)
